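A five-concentration, 48-hour dose response in 96-well plates underlies each endpoint, interpolated linearly between surrounding concentrations. TGI denotes the concentration required for complete inhibition of growth.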

Among the test systems are SF-295 CNS; M14 melanoma; NCI-H23 lung; BT-549 breast; OVCAR-8 ovarian; SK-OV-3 ovarian; SK-MEL-2 melanoma; LOX IMVI melanoma; ACHN renal; SK-MEL-28 melanoma; KM12 colon; SNB-75 CNS; UACC-257 melanoma; MCF7 breast; UACC-62 melanoma; SF-268 CNS; EKVX NSCLC; MOLT-4 leukemia; UO-31 renal.
Holding throughout (experiment): NCI anticancer screen, dose series, 48 h

With `CCN(CC)CCC(=O)c1ccc(Oc2ccc(C)cc2)cc1`, the TGI came out at 36.4 µM in the test with SF-295 CNS; 31.9 µM in the test on M14 melanoma; 34.8 µM in the test on NCI-H23 lung; 32.7 µM with BT-549 breast; 39.4 µM in the test with OVCAR-8 ovarian; 88.7 µM in the test on SK-OV-3 ovarian. Moreover, the TGI in the test on SK-MEL-2 melanoma is greater than 100 µM; in the test with LOX IMVI melanoma, 31 µM; in the test with ACHN renal it was 38.1 µM; in the test with SK-MEL-28 melanoma, 30.5 µM; with KM12 colon, 23.9 µM; in the test with SNB-75 CNS it was 35.7 µM. The TGI came out at 34.4 µM with UACC-257 melanoma; 32.9 µM in the test with MCF7 breast; 31.3 µM in the test on UACC-62 melanoma; 33.8 µM in the test with SF-268 CNS; 38.2 µM in the test with EKVX NSCLC; 60.7 µM in the test with MOLT-4 leukemia.

Consider `CSc1c(C#N)c(O)n(-c2ccc(Cl)cc2)c(=O)c1C#N`, for which the TGI in the test with M14 melanoma, with NCI-H23 lung, in the test on UO-31 renal, in the test with BT-549 breast, with OVCAR-8 ovarian and in the test on SK-OV-3 ovarian was greater than 100 µM throughout. Also, the TGI in the test on SK-MEL-2 melanoma, with LOX IMVI melanoma, with SK-MEL-28 melanoma, in the test on KM12 colon, with SNB-75 CNS and in the test on UACC-257 melanoma was greater than 100 µM throughout. Further, the TGI in the test on MCF7 breast, in the test with UACC-62 melanoma, with SF-268 CNS, in the test with EKVX NSCLC and in the test on MOLT-4 leukemia was greater than 100 µM in each case.

As to `CCOC(=O)C(Cc1ccc(OC(=O)c2ccc(OC)cc2OC)cc1)NC(=O)C(F)(F)F` (configuration not stated), the TGI with SF-295 CNS was 91.5 µM; in the test with M14 melanoma, 33.8 µM; with NCI-H23 lung, 45.1 µM; with UO-31 renal, 34.5 µM; in the test with BT-549 breast, greater than 100 µM; in the test on OVCAR-8 ovarian it was 51 µM. The TGI was greater than 100 µM with SK-OV-3 ovarian; 57.5 µM in the test with SK-MEL-2 melanoma; 36 µM in the test with LOX IMVI melanoma; 30.9 µM with ACHN renal; 72.8 µM in the test with KM12 colon; 33.1 µM with SNB-75 CNS. Also, the TGI was 29.4 µM in the test on UACC-257 melanoma; 47.4 µM in the test with MCF7 breast; 30.5 µM in the test with UACC-62 melanoma; greater than 100 µM with SF-268 CNS; 49.6 µM in the test on EKVX NSCLC; greater than 100 µM in the test on MOLT-4 leukemia.

In the case of `COC(OC)C1(c2ccccc2)Oc2ccccc2C1=O` (configuration not stated), the TGI in the test on SF-295 CNS, with M14 melanoma, in the test on NCI-H23 lung, in the test with BT-549 breast, with OVCAR-8 ovarian and in the test on SK-OV-3 ovarian was greater than 100 µM throughout. In addition, the TGI with SK-MEL-2 melanoma, in the test with LOX IMVI melanoma, in the test with ACHN renal, in the test on SK-MEL-28 melanoma, in the test with KM12 colon and in the test on SNB-75 CNS was greater than 100 µM each time. Besides, the TGI in the test with UACC-257 melanoma, with MCF7 breast, with UACC-62 melanoma, in the test on SF-268 CNS, in the test with EKVX NSCLC and with MOLT-4 leukemia was greater than 100 µM throughout.

As for `NNC(=O)CC(=O)Nc1ccc(C(=O)O)cc1`, the TGI in the test on SF-295 CNS, in the test with NCI-H23 lung, in the test with UO-31 renal, in the test on BT-549 breast, in the test with OVCAR-8 ovarian and in the test with SK-OV-3 ovarian was greater than 100 µM in each case. Also, the TGI in the test on SK-MEL-2 melanoma, in the test with LOX IMVI melanoma, in the test on ACHN renal, in the test with KM12 colon, in the test on SNB-75 CNS and in the test with UACC-257 melanoma was greater than 100 µM each time. The TGI in the test with MCF7 breast, with UACC-62 melanoma, in the test on SF-268 CNS, in the test with EKVX NSCLC and in the test with MOLT-4 leukemia was greater than 100 µM in each case.

With `COc1cccc2c3cccc(OC)c3c3[nH]cnc3c12`, the TGI in the test with SF-295 CNS turned out to be 9.51 µM; in the test on M14 melanoma it was 3.08 µM; in the test with NCI-H23 lung, 3.37 µM; in the test with UO-31 renal it was 3.02 µM; in the test with BT-549 breast, 31.6 µM; in the test on SK-OV-3 ovarian it was 34.1 µM. Moreover, the TGI was determined as 34.3 µM in the test on SK-MEL-2 melanoma; 3.52 µM in the test with LOX IMVI melanoma; 22.4 µM with ACHN renal; 9.53 µM in the test with SK-MEL-28 melanoma; 4.56 µM with KM12 colon; 8.58 µM in the test with SNB-75 CNS. Moreover, the TGI in the test on UACC-257 melanoma was 36.1 µM; in the test with MCF7 breast, 2.81 µM; in the test on UACC-62 melanoma, 30.3 µM; in the test with SF-268 CNS, 9.26 µM; in the test on EKVX NSCLC, 27.9 µM; in the test on MOLT-4 leukemia, 6.27 µM.

With `Nc1ccc(-c2nc3cc(F)ccc3s2)cc1Br`, the TGI was greater than 100 µM in the test with SF-295 CNS; greater than 100 µM with M14 melanoma; greater than 100 µM in the test with UO-31 renal; greater than 74.1 µM with BT-549 breast; greater than 100 µM in the test on OVCAR-8 ovarian; greater than 100 µM in the test on SK-OV-3 ovarian. For the same molecule, the TGI in the test on SK-MEL-2 melanoma is greater than 100 µM; in the test with LOX IMVI melanoma, greater than 100 µM; in the test on ACHN renal, greater than 100 µM; in the test with SK-MEL-28 melanoma, greater than 100 µM; in the test with KM12 colon it was greater than 100 µM; in the test with SNB-75 CNS it was 77.9 µM. Besides, the TGI in the test with UACC-257 melanoma is greater than 100 µM; in the test with MCF7 breast, 0.528 µM; in the test on UACC-62 melanoma, greater than 100 µM; in the test on SF-268 CNS, greater than 100 µM; in the test with EKVX NSCLC, greater than 63.6 µM; with MOLT-4 leukemia it was greater than 100 µM.

Regarding `COc1cc(/C=C2\N=C(c3ccccc3)N(c3nc4c(Cl)cc(Cl)cc4s3)C2=O)ccc1O`, the TGI with SF-295 CNS was greater than 100 µM; in the test on M14 melanoma, greater than 100 µM; with UO-31 renal it was 69 µM; with BT-549 breast, 77.4 µM; with OVCAR-8 ovarian, greater than 100 µM; with SK-OV-3 ovarian, greater than 100 µM. For the same molecule, the TGI was 55.1 µM with SK-MEL-2 melanoma; 53.6 µM with LOX IMVI melanoma; 82.2 µM in the test on ACHN renal; greater than 100 µM in the test on SK-MEL-28 melanoma; greater than 100 µM with KM12 colon; 75 µM in the test on SNB-75 CNS. The TGI in the test on UACC-257 melanoma is greater than 100 µM; with MCF7 breast it was greater than 100 µM; with UACC-62 melanoma it was greater than 100 µM; in the test with SF-268 CNS it was greater than 100 µM; with EKVX NSCLC it was greater than 100 µM; in the test on MOLT-4 leukemia, 43.3 µM.

(Values after PubChem BioAssay (NCI).)
